This note sets out measurements from patent publication US8815882B2, “Pyrazole aminopyrimidine derivatives as LRRK2 modulators” (Genentech, Inc., priority 2010, dated 2014).

In one experiment the target is T1, LRRK2 (Homo sapiens, UniProt Q5S007, G2019S).
T1 construct: purchased Invitrogen PV4882 (lot 567054A)
T1 sequence (Q5S007 whole entry G2019S): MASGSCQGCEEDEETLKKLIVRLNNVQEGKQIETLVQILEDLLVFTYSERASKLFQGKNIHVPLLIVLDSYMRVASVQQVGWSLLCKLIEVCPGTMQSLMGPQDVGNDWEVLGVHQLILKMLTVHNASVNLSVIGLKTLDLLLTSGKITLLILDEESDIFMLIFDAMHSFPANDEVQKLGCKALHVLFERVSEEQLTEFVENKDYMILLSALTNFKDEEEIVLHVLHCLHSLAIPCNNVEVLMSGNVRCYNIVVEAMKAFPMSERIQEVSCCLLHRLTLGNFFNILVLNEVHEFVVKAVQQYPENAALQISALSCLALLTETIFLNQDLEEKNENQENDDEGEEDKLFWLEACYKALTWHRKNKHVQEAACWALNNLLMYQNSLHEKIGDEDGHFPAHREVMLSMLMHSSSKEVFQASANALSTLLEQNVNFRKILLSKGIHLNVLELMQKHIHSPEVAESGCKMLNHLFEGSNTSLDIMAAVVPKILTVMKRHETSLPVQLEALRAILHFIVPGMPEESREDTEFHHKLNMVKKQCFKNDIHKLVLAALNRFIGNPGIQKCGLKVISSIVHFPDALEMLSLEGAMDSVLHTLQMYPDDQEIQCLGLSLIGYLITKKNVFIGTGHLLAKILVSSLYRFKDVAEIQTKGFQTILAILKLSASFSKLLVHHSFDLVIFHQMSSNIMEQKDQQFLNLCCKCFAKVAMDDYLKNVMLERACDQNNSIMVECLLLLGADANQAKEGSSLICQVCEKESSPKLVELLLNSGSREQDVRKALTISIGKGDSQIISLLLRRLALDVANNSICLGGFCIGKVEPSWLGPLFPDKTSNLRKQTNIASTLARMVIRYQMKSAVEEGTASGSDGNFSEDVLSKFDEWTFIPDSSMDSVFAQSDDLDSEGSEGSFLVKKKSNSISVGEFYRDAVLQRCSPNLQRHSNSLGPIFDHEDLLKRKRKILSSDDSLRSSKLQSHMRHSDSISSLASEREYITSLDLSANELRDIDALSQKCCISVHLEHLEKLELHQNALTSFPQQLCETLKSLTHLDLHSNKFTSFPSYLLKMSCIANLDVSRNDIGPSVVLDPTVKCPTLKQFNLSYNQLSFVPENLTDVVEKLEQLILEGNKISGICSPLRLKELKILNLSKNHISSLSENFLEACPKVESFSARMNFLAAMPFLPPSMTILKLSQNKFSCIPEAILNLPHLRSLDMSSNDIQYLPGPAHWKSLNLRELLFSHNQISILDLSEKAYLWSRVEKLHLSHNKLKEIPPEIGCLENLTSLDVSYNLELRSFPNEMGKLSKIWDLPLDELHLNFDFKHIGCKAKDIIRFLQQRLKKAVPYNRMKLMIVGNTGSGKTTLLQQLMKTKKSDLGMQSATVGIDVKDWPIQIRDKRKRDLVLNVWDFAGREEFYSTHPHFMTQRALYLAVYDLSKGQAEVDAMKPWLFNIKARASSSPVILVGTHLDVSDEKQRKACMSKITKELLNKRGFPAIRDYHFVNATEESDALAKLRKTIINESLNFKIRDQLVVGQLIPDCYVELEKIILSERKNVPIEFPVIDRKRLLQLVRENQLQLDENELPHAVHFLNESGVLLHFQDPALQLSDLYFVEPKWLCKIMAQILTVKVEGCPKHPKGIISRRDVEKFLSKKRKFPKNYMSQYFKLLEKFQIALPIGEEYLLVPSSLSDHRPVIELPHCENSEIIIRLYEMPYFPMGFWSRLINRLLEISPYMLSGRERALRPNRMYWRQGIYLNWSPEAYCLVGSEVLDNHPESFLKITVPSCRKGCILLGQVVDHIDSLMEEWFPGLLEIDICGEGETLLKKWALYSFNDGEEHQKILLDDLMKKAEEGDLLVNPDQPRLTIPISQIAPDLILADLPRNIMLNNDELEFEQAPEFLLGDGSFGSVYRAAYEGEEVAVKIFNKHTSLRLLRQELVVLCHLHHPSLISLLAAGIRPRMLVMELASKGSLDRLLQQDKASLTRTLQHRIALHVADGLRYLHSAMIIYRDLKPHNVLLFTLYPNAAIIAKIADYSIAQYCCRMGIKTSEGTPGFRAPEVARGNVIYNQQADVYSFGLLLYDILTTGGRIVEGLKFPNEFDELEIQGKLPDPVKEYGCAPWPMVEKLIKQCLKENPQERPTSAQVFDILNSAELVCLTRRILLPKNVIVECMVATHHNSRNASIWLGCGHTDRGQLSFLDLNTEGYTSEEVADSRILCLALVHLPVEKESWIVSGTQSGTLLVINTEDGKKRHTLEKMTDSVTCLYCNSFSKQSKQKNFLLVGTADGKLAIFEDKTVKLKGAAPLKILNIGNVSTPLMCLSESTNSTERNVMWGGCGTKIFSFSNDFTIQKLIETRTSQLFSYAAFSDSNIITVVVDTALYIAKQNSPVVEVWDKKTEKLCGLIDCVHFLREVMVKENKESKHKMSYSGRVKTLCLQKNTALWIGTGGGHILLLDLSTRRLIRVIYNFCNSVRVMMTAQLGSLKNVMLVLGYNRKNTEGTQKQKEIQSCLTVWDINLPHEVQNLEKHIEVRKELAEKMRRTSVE
Put plainly: In Vitro LRRK2 Assay (LabChip 3000, fluorescently-labeled peptide substrate, ATP). The experiment is classed as biochemical. Conditions: Table 9; LRRK2 Ki (micromolar); read-out: LRRK2 Ki (KI). The gist of the method: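 Read-out was LabChip capillary electrophoresis, resolving phospho- from non-phospho-peptide by fluorescence intensity. The kinase reaction combined enzyme, ATP, test compound and labeled peptide (4 μM working dilution) for 2 h in darkness before stop solution. Values were reported as Ki, from a tight-binding model with Et, S and Km, or as IC50 or percent inhibition.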
One may read the Ki as a measure of affinity in units of concentration, obtained from inhibition or displacement. As to `Cc1c(Nc2ncc(C#N)c(NCC(F)(F)F)n2)cnn1C` [Example 376, 2-(1,5-dimethyl-1H-pyrazol-4-ylamino)-4-(2,2,2-trifluoroethylamino) pyrimidine-5-carbonitrile], the Ki is 27.5 nM.
On the same count and under the same terms, under `CNc1nc(Nc2cnn(-c3ccccc3)c2C)ncc1C#N` [Example 360, 2-(5-methyl-1-phenyl-1H-pyrazol-4-ylamino)-4-(methylamino) pyrimidine-5-carbonitrile] stands 1.3 nM.

The same experiment, now with this note: Table 10; LRRK2 Ki (micromolar); read-out: LRRK2 Ki (KI).
On to `CNc1nc(Nc2cn(C(C)(C)C(=O)NCC(F)(F)F)nc2C)ncc1C(F)(F)F` [Example 424], for which the Ki was 6.3 nM.
As to `CNc1nc(Nc2cnn([C@H](C)C#N)c2C)ncc1C(F)(F)F` [Example 439, (R)-2-[5-Methyl-4-(4-methylamino-5-trifluoromethyl-pyrimidin-2-ylamino)-pyrazol-1-yl]-propionitrile], the Ki was 1.6 nM.
Same read-out and setting: for `CNc1nc(Nc2cn([C@H](C)C(=O)N3CCCC3)nc2C)ncc1C(F)(F)F` [Example 403, (R)-2-(3-methyl-4-(4-(methylamino)-5-(trifluoromethyl)pyrimidin-2-ylamino)-1H-pyrazol-1-yl)-1-(pyrrolidin-l-yl)propan-1-one] the value was 16 nM.
Still for that read-out and setting: for `CNc1nc(Nc2cn([C@@H](C)C(=O)N(C)C)nc2C)ncc1C(F)(F)F` [Example 436, (S)-N,N-Dimethyl-2-[3-methyl-4-(4-methylamino-5-trifluoromethyl-pyrimidin-2-ylamino)-pyrazol-1-yl]-propionamide] the value was 30.3 nM; for `CNc1nc(Nc2cn(C(C)(C)C(=O)NCC3CC3)nc2C)ncc1C(F)(F)F` [Example 427, N-(cyclopropylmethyl)-2-methyl-2-(3-methyl-4-(4-(methylamino)-5-(trifluoromethyl)pyrimidin-2-ylamino)-1H-pyrazol-1-yl)propanamide], 52 nM.
Consider `CNc1nc(Nc2cnn(C(C)(C)C(=O)NC(C)(C)C)c2C)ncc1C(F)(F)F` [Example 447, N-tert-Butyl-2-[5-methyl-4-(4-methylamino-5-trifluoromethyl-pyrimidin-2-ylamino)-pyrazol-1-yl]-isobutyramide], for which the Ki is 67 nM.
With `CNc1nc(Nc2cnn([C@H](C)C(=O)N(C)C)c2C)ncc1C(F)(F)F` [Example 412, (R)-N,N-dimethyl-2-(5-methyl-4-(4-(methylamino)-5-(trifluoromethyl)pyrimidin-2-ylamino)-1H-pyrazol-1-yl)propanamide], the Ki was 28.4 nM.
Consider `CNc1nc(Nc2cn(CC(=O)N(C)C)nc2C)ncc1C(F)(F)F` [Example 396, N,N-dimethyl-2-(3-methyl-4-(4-(methylamino)-5-(trifluoromethyl)pyrimidin-2-ylamino)-1H-pyrazol-1-yl)acetamide], for which the Ki is 4 nM.

Still in this experiment, the particulars now being: read-out: LRRK2 Ki (KI), Table 7.
As to `COc1nc(Nc2cnn(S(=O)(=O)C3CC3)c2C)ncc1Cl` [Example 70, 5-chloro-N-(1-(cyclopropyl-sulfonyl)-5-methyl-1H-pyrazol-4-yl)-4-methoxy-pyrimidin-2-amine], the Ki was found to be 15 nM.

The same experiment, now with this note: read-out: LRRK2 Ki (KI), Table 8.
In the case of `CNc1nc(Nc2cnn(C3CCN(CCOC)CC3)c2C)ncc1C(F)(F)F` [Example 239, N2-(1-(1-(2-methoxyethyl)piperidin-4-yl)-5-methyl-1H-pyrazol-4-yl)-N4-methyl-5-(trifluoromethyl) pyrimidine-2,4-diamine], the Ki worked out at 6 nM.
Same read-out and setting: under `CNc1nc(Nc2cn(C3CCCC3OC)nc2C)ncc1C(F)(F)F` (centres unmarked) [Example 188, N2-(1-(2-methoxycyclo-pentyl)-3-methyl-1H-pyrazol-4-yl)-N4-methyl-5-(trifluoromethyl) pyrimidine-2,4-diamine] stands 12 nM.
In the case of `CNc1nc(Nc2cn(C3CCN(C4COC4)CC3F)nc2C)ncc1C(F)(F)F` (centres unmarked) [Example 199, N2-(1-(3-fluoro-1-(oxetan-3-yl)piperidin-4-yl)-3-methyl-1H-pyrazol-4-yl)-N4-methyl-5-(trifluoromethyl) pyrimidine-2,4-diamine], the Ki came out at 2.2 nM.
For the molecule `CNc1nc(Nc2cnn(C(C)C)c2Cl)ncc1C(F)(F)F` [Example 138, N2-(5-chloro-1-isopropyl-1H-pyrazol-4-yl)-N4-methyl-5-(trifluoromethyl) pyrimidine-2,4-diamine], the inhibition constant Ki worked out at 1.1 nM.
Still for that read-out and setting: under `CCNc1nc(Nc2cn(C3CCNCC3F)nc2C)ncc1C(F)(F)F` (centres unmarked) [Example 333, N4-Ethyl-N2-[1-(3-fluoro-piperidin-4-yl)-3-methyl-1H-pyrazol-4-yl]-5-trifluoromethyl-pyrimidine-2,4-diamine] stands 0.7 nM; under `CCC(C)S(=O)(=O)n1ncc(Nc2ncc(C(F)(F)F)c(NC)n2)c1C` (centres unmarked) [Example 219, N2-(1-(sec-butylsulfonyl)-5-methyl-1H-pyrazol-4-yl)-N4-methyl-5-(trifluoromethyl) pyrimidine-2,4-diamine], 6.7 nM; under `CCn1cc(Nc2ncc(Br)c(NC)n2)c(C)n1` [Example 253, 5-Bromo-N2-(1-ethyl-3-methyl-1H-pyrazol-4-yl)-N4-methyl-pyrimidine-2,4-diamine], 2.2 nM.
The same measure, in the same setting: for `CNc1nc(Nc2cnn(C)c2NC)ncc1C(F)(F)F` [Example 194, N4-methyl-N2-(1-methyl-5-(methylamino)-1H-pyrazol-4-yl)-5-(trifluoromethyl) pyrimidine-2,4-diamine] the value was 52.2 nM; for `CNc1nc(Nc2cn(C3CN(CC(F)(F)F)C3)nc2C)ncc1C(F)(F)F` [Example 202, N4-methyl-N2-(3-methyl-1-(1-(2,2,2-trifluoroethyl)azetidin-3-yl)-1H-pyrazol-4-yl)-5-(trifluoromethyl) pyrimidine-2,4-diamine], 34 nM; for `CNc1nc(Nc2cnn(C)c2C2CCC2)ncc1C(F)(F)F` [Example 229, N2-(5-cyclobutyl-1-methyl-1H-pyrazol-4-yl)-N4-methyl-5-(trifluoromethyl) pyrimidine-2,4-diamine], 11 nM.
Still for that read-out and setting: for `CCNc1nc(Nc2cn(C(C)(C)c3nnc(C)o3)nc2C)ncc1C(F)(F)F` [Example 336, N4-ethyl-N2-(3-methyl-1-(2-(5-methyl-1,3,4-oxadiazol-2-yl)propan-2-yl)-1H-pyrazol-4-yl)-5-(trifluorometliyl) pyrimidine-2,4-diamine] the value was 1.2 nM; for `CNc1nc(Nc2cnn(-c3ccc(C(=O)N(C)C)cc3)c2C)ncc1C(F)(F)F` [Example 156, N,N-dimethyl-4-(5-methyl-4-(4-(methylamino)-5-(trifluoromethyl)pyrimidin-2-ylamino)-1H-pyrazol-1-yl)benzamide], 0.3 nM; for `CNc1nc(Nc2cnn(C(C)c3ccccn3)c2C)ncc1C(F)(F)F` (centres unmarked) [Example 225, N4-methyl-N2-(5-methyl-1-(1-(pyridin-2-yl)ethyl)-1H-pyrazol-4-yl)-5-(trifluoromethyl) pyrimidine-2,4-diamine], 3.8 nM.
Regarding `CCNc1nc(Nc2cnn(CC)c2C)ncc1Br` [Example 107, 5-bromo-N4-ethyl-N2-(1-ethyl-5-methyl-1H-pyrazol-4-yl)pyrimidine-2,4-diamine], the Ki amounted to 0.43 nM.
Take `CCNc1nc(Nc2cn([C@H]3CCCN(C)C3)nc2C)ncc1C(F)(F)F` [Example 312, N4-Ethyl-N2-[3-methyl-1-((S)-1-methyl-piperidin-3-yl)-1H-pyrazol-4-yl]-5-trifluoromethyl-pyrimidine-2,4-diamine]: the Ki stood at 15.6 nM.
